# PMC11721939, “Novel tetrahydronaphthalen-1-yl-phenethyl ureas: synthesis and dual antibacterial-anticancer activities” (Journal of Enzyme Inhibition and Medicinal Chemistry, 2023)
# Where two headings read alike, the source gives them in different places.
# How the values were obtained:
# [1] = tested on: Enterococcus faecalis ATCC 49452; assay: Disc diffusion method; format: cell-based
# Experimental: (§1) The bacteria employed for evaluation included Acinetobacter baumannii ATCC 1605, Enterococcus faecalis ATCC 49452, Pseudomonas aeruginosa ATCC 9027, and Staphylococcus aureus MRSA ATCC 43300. These strains were sourced from the Molecular Biology and Genetics Laboratory at Erzurum Technical University. They were immersed in Mueller-Hinton Broth (MHB) and then incubated at a temperature of 37 °C for a duration of 16–24 h.
# (§2) Bacteria were adjusted to a McFarland standardisation of 0.5, equivalent to a cell density of 1.5 × 10^8/ml, and were then introduced into MHB. Subsequently, a 100 μl volume of this bacterial mixture was spread onto Mueller-Hinton agar plates. Sterile empty discs were then treated with the formulated ureas at concentrations of 1000, 500, and 250 µM. Oflaxin ([…]) and netilmicin ([…]) were used as positive controls, while DMSO served as the negative control. The plates were then placed in an incubator at 37 °C for a period ranging from 24 to 72 h, depending on the optimal conditions. Post incubation, the diameter of the inhibition zones was gauged to determine the antibacterial efficacy. This entire process was replicated three times.
# [2] = tested on: Acinetobacter baumannii ATCC 1605; assay: Disc diffusion method; format: cell-based
# Experimental: as §1, §2
# [3] = tested on: Pseudomonas aeruginosa ATCC 9027; assay: Disc diffusion method; format: cell-based; settings: for zone of inhibition at 250 µM: ATCC9027, 250 µM; for zone of inhibition at 250 µM / zone of inhibition at 500 µM / zone of inhibition at 1000 µM: read-out: Disc diffusion test, inhibitory zone diameter; for zone of inhibition at 500 µM: ATCC9027, 500 µM; for zone of inhibition at 1000 µM: ATCC9027, 1000 µM
# Experimental: as §1, §2
# [4] = tested on: Staphylococcus aureus MRSA ATCC 43300; assay: Disc diffusion method; format: cell-based
# Experimental: as §1, §2
# WST-8 cytotoxicity assay [5] = format: cell-based; settings: human, PCS-201-012 healthy primary dermal fibroblast cells, PCS-201-012 healthy fibroblast cells, WST-8, n = 4, read-out: Cytotoxic activity IC50
# Experimental: (§3) The cells in culture were frequently sub-cultured, about 2–3 times weekly, until they reached a confluence of 80–90%. The experiments were organised into seven cell groups as follows: group I served as the control, while groups II through VII were pre-treated with varying dosages of the synthesised ureas (ranging from 12.5 µM to 500 µM). The cytotoxic potential of these ureas was assessed in vitro using the Cell Viability Detection Kit-8 (CVDK-8, Ecotech Biotechnology, Erzurum, Turkey), a method based on WST-8 quantification for human primary dermal fibroblasts and cervical cancer cells. Healthy fibroblast, HeLa, and SH-SY5Y cells were allocated in 96-well plates, with each well containing 5 × 10^3 cells in 100 µL of DMEM:F12 (supplemented with 1% penicillin/streptomycin and 10% FBS). After an overnight growth, these cells were exposed to specified concentrations of the synthesised ureas for a duration of 48 h at 37 °C in a 5% CO2 atmosphere. Cisplatin acted as the positive control with concentration gradients of 0–250 µM for HeLa cells and 0–20 µM for the SH-SY5Y cells. Post incubation, in sterile, dimly lit conditions, 10% WST-8 solution was added to every well and further incubated at 37 °C within 5% CO2 for another 3–4 h. The optical density of the 96-well plate was gauged at a 450 nm wavelength using a spectrophotometer (BioTek, EPOCH, Santa Clara, CA). The control group’s main purpose was to measure the absorbance of just the cells and the growth medium.
# [6] = tested on: Enterococcus faecalis ATCC 49452; assay: Micro-well dilution assay (MIC); format: cell-based
# Experimental: as §1
# (§4) The synthesised ureas’ minimum inhibitory concentrations (MICs) against the bacterial samples were ascertained using the microdilution broth technique. Utilising a method of twofold serial dilutions, the ureas were diluted to concentrations spanning from […]. The bacterial turbidity was set to match the 0.5 McFarland standard. In the 96-well plates, each well received 100 μl of MHB and 5 μl of the bacteria being tested. For the negative control, 195 μl of MHB and 5 μl of the bacterial sample were added. The plate was then covered with a sterile seal and allowed to incubate for 24 h at a temperature of 37 °C. Post incubation, the growth of the bacteria was assessed at 600 nm using the Fluoroskan Ascent® FL. The MIC represented the smallest amount of the chemical that effectively halted bacterial growth. This procedure was conducted three times.
# [7] = tested on: Acinetobacter baumannii ATCC 1605; assay: Micro-well dilution assay (MIC); format: cell-based
# Experimental: as §1, §4
# [8] = tested on: Pseudomonas aeruginosa ATCC 9027; assay: Micro-well dilution assay (MIC); format: cell-based; settings: for MIC: ATCC9027
# Experimental: as §1, §4
# [9] = tested on: Staphylococcus aureus MRSA ATCC 43300; assay: Micro-well dilution assay (MIC); format: cell-based
# Experimental: as §1, §4
# HeLa cells = assay: WST-8 cytotoxicity assay; format: cell-based, human; settings: for IC50: Homo sapiens, HeLa cells, 48 h, WST-8, n = 4, read-out: Cytotoxic activity IC50; for SI value (HeLa cells): IC50 PCS-201-012 fibroblasts / IC50 HeLa, n = 4
# Experimental: as §3
# SH-SY5Y cells = assay: WST-8 cytotoxicity assay; format: cell-based, human; settings: for IC50: SH-SY5Y, 48 h, WST-8, n = 4, read-out: Cytotoxic activity IC50; for SI value (SH-SY5Y cells): IC50 PCS-201-012 fibroblasts / IC50 SH-SY5Y, n = 4
# Experimental: as §3
# [10] = tested on: all tested bacterial strains; assay: Antibacterial activity (MIC) summarised over all tested bacterial strains; format: cell-based; settings: against the studied bacteria
# Experimental: as §1
# as §2, with “This entire process was replicated three times.” left out
# The synthesised ureas’ minimum inhibitory concentrations (MICs) against the bacterial samples were ascertained using the microdilution broth technique. […] Post incubation, the growth of the bacteria was assessed at 600 nm using the Fluoroskan Ascent® FL. […]
# WST-8 cytotoxicity assay [11] = format: cell-based, human; settings: human, SH-SY5Y cells, SH-SY5Y, 48 h, read-out: Cell viability
# Experimental: as §3
# [12] = Staphylococcus aureus, read-out: Disc diffusion test, inhibitory zone diameter
Structure (SMILES),zone of inhibition at 250 µM [3],zone of inhibition at 500 µM [3],zone of inhibition at 1000 µM [3],"zone of inhibition at 500 µM [4, 12]","zone of inhibition at 1000 µM [4, 12]",IC50 at 48 h (WST-8 cytotoxicity assay [5]),melting point,MIC [8],MIC [9],IC50 (HeLa cells),SI value (HeLa cells) (HeLa cells),IC50 (SH-SY5Y cells; Homo sapiens),SI value (SH-SY5Y cells) (SH-SY5Y cells),other results
"COc1ccc(CCNC(=O)NC2CCCc3c(OC)cccc32)cc1 (stereo not drawn) [Compound 18, 1-(5-Methoxy-1,2,3,4-tetrahydronaphthalen-1-yl)-3-(4-methoxyphenethyl)urea]",9 mm,10 mm,15 mm,12 mm,15 mm,374 µM,150 to 152 °C,3.9 µM,3.9 µM,364 µM,1.02,10.2 µM,36.72,"zone of inhibition at 250 µM ([1]; ATCC49452, 250 µM, read-out: Disc diffusion test, inhibitory zone diameter): 5 mm; zone of inhibition at 500 µM ([1]; ATCC49452, 500 µM, read-out: Disc diffusion test, inhibitory zone diameter): 7 mm; zone of inhibition at 1000 µM ([1]; ATCC49452, 1000 µM, read-out: Disc diffusion test, inhibitory zone diameter): 13 mm; zone of inhibition at 250 µM ([2]; ATCC1605, 250 µM, read-out: Disc diffusion test, inhibitory zone diameter): 6 mm; zone of inhibition at 500 µM ([2]; ATCC1605, 500 µM, read-out: Disc diffusion test, inhibitory zone diameter): 10 mm; zone of inhibition at 1000 µM ([2]; ATCC1605, 1000 µM, read-out: Disc diffusion test, inhibitory zone diameter): 16 mm; zone of inhibition at 250 µM [4, 12]: 5 mm; MIC ([6]; ATCC49452): 0.97 µM; MIC ([7]; ATCC1605): 7.81 µM"
"CC1COc2c(N3CCN(C)CC3)c(F)cc3c(=O)c(C(=O)O)cn1c23 (stereo not drawn) [OFX, ofloxacin, reference compound]",–,–,–,–,–,–,–,–,–,–,–,–,–,"Standard antibiotic disc, inhibitory zone diameter ([1]; 10 μg/disc): 11 mm; Standard antibiotic disc, inhibitory zone diameter ([2]; 10 μg/disc): 16 mm; Standard antibiotic disc, inhibitory zone diameter ([3]; 10 μg/disc): 23 mm; Standard antibiotic disc, inhibitory zone diameter ([4]; Staphylococcus aureus MRSA, 10 μg/disc): 24 mm; MIC of standard antibiotics [6]: 2.5 µg/mL; MIC of standard antibiotics [7]: 0.5 µg/mL; MIC of standard antibiotics [8]: 11.4 µg/mL; MIC of standard antibiotics [9]: 1.2 µg/mL"
"COc1cccc2c1CCCC2NC(=O)NCCc1ccccc1 (stereo not drawn) [Compound 14, 1-(5-methoxy-1,2,3,4-tetrahydronaphthalen-1-yl)-3-phenethylurea]",–,–,–,–,–,7.9 µM,–,–,–,2.6 µM,–,9.7 µM,–,"Antibacterial properties (in words) [10]: did not display any antibacterial properties; viability at 48 h, 12.5 µM (WST-8 cytotoxicity assay [11]; 12.5 µM): 25.5%; viability at 48 h, 25 µM (WST-8 cytotoxicity assay [11]; 25 µM): 8.4%; viability at 48 h, 50 µM (WST-8 cytotoxicity assay [11]; 50 µM): 4.68%; viability at 48 h, 100 µM (WST-8 cytotoxicity assay [11]; 100 µM): 4.87%; viability at 48 h, 300 µM (WST-8 cytotoxicity assay [11]; 300 µM): 3.77%; viability at 48 h, 500 µM (WST-8 cytotoxicity assay [11]; 500 µM): 1.67%"
"COc1ccccc1CCNC(=O)NC1CCCc2c(OC)cccc21 (stereo not drawn) [Compound 15, 1-(5-Methoxy-1,2,3,4-tetrahydronaphthalen-1-yl)-3-(2-methoxyphenethyl)urea]",5 mm,5 mm,5 mm,5 mm,6 mm,226 µM,174 to 176 °C,15.6 µM,15.6 µM,142 µM,1.58,8.93 µM,25.26,IC50 (SH-SY5Y cells): 8.9 µM
